Patent US8193154B2, “Oligopeptide tyrosinase inhibitors and uses thereof” (The Board of Trustees of the Leland Stanford Junior …, priority 2007, dated 2012)
Where two headings read alike, the source gives them in different places.

Columns and labels:
[1] = molecular target: tyrosinase; settings: read-out: published IC50; literature value; cited from earlier work
[2] = tested on: Human melanocytes; experiment: Melanin content measurement in melanocytes; format: cell-based; settings: FIG. 4; for melanin content: 10 μM (YR peptide: similar concentration), 7 days
Method: Human melanocytes were cultured in 6-well plates and treated with individual test samples for 7 d. After washes in PBS, cells were detached by short incubation in trypsin/EDTA (0.25%/0.1% in PBS). An aliquot was used for cell count. The remaining cells were sonicated and incubated overnight in 500 μl 1 M NaOH at 37° C., avoid light. Melanin concentrations were calculated by comparison of the OD at 475 nm of unknown samples with a standard curve obtained with synthetic melanin.
To provide more direct evidence that the YR peptide inhibits melanogenesis, we determined its effects on melanin production in melanocytes. The contents of melanin in melanocytes treated with no addition, YR peptide (P4) or HQ for 7 days were determined with spectrophotometer and compared with melanin standard curve.

[3] = molecular target: T1, Cellular tyrosinase (Homo sapiens, UniProt P14679); experiment: Cellular tyrosinase activity using L-DOPA as the substrate; format: cell-based; settings: for reduction of cellular tyrosinase activity: 7 d treatment of melanocytes
T1 construct: endogenous in cells; host or cells: primary human melanocytes, passage 3
T1 sequence (P14679 19-529): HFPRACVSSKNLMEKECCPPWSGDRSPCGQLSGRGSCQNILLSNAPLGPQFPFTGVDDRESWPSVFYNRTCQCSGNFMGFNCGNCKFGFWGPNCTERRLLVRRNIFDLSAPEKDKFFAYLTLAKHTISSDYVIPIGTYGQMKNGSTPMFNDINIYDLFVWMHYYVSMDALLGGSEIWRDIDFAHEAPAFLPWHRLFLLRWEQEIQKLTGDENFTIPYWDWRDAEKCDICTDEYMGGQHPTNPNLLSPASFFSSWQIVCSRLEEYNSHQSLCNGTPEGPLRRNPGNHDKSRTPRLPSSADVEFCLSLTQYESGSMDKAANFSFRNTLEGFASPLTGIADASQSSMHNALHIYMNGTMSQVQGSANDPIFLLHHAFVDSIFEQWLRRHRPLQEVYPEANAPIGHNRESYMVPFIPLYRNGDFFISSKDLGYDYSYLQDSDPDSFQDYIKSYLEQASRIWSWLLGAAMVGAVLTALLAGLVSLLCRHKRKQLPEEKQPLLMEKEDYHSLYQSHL
Method: Cellular tyrosinase activity using L-DOPA as the substrate was assayed by the method of Cheng K T, Hsu F L, Chen S H, Hsieh P K, Huang H S, Lee C K, Lee M H. 2007. […] Chem. Pharm Bull 55(5): 757-761.
Human melanocytes were cultured in 6-well plates. After treatment with individual test samples for 7 d, the cells were washed with phosphate-buffered saline (PBS) and lysed with phosphate buffer, pH 6.8, containing 1% Triton X-100. After sonication, lysates were clarified by centrifugation at 10000 g for 10 min. After determination of protein content with a Bio-Rad protein assay kit, lysates were added to 96 well culture plate containing equal amounts of protein (40 μg), and adjusted with lysis buffer to reach 150 μl in each well. 75 μl of 10 mM L-DOPA dissolved in lysis buffer was added to each well. The culture plate was incubated at 37° C. for 30 min, and then read with the spectrophotometer at 475 nm.
Tyrosinase inhibitory activity was calculated with the following formula: tyrosinase inhibition (%)=[1−(O.D.475 of sample/O.D.475 of control)]×100%.
After centrifugation and protein calculation, certain volume of supernatant for each sample was transferred to 96 well culture plate by compensating a certain protein content in each well, and adjusted the volume of each well to 150 μl with 0.067 M of phosphate buffer (pH 6.8). 75 μl of 10 mM L-DOPA dissolved in phosphate buffer (pH 6.8) was added to each well. The culture plate was incubated at 37° C. for 30 min, and then read with the spectrophotometer at 475 nm.

[4] = tested on: Primary human melanocytes; settings: for effect on melanocyte proliferation rates: FIG. 3
Method: Primary human melanocytes, passage 3, were kindly obtained from Dr. Todd Ridky in the department of dermatology, Stanford University. Cells were cultured in Medium 254 (Cascade Biologics) supplemented with Human Melanocyte Growth Supplement (HMGS, Cascade Biologics). They were grown in a humidified atmosphere with 5% CO2 at 37° C. Cell plating densities were arranged that those cells were in log phase of growth for the duration of incubation with test samples. Subcultures of cells were plated at a density of 4×10^4 cells/cm^2. Approximately 24 h later, fresh medium and test samples were added. Cells were harvested 7 d after test samples addition, replaced with fresh medium and test samples every two days.
Cell viability was determined using WST-1 Cell Proliferation Kit (Roche). Cells were plated at 1×10^5/well (24-well plates). Twenty-four hours after plating, test samples were added and cultures were incubated for an additional 7 d. At the end of the treatment period, 50 μl WST-1 was added to each well. The plates were placed at 37° C. for 4 h in the dark and the absorbance at 450 nm was read using microplate. Usually, 3 replicate wells were measured for each group to be tested. Wells containing medium but no cells served as controls. Cell viability was calculated according to the equation: cell viability=absorbance(sample tested)/absorbance(medium only)×100%.
The concentrations of HQ tested on melanocytes were 1, 10, 100, and 1000 μM, while those of YR peptide were 1, 10, and 100 μM.

[5] = molecular target: Mushroom tyrosinase; experiment: Mushroom tyrosinase inhibition, colorimetric detection of dopachrome from L-tyrosine; format: biochemical; settings: for IC50 (result in words): L-tyrosine substrate, pH 6.8, 37° C., absorbance at 475 nm 30 min after initiation; for inhibitory activity on tyrosinase: in vitro, FIG. 1, FIG. 2 and peptide screen
Method: Mushroom tyrosinase, L-tyrosine and other chemicals for the enzymatic reaction were obtained from Sigma-Aldrich. […] All synthetic peptides were between 3 and 10 amino acids in length and were synthesized using tBoc and/or Fmoc solid phase chemistry.
Inhibition of tyrosinase by experimental peptides was determined by colorimetric detection of dopachrome, the reaction product of the substrate L-tyrosine. Mushroom tyrosinase, L-tyrosine, and a potassium phosphate buffer (pH 6.8) were added to 96-well plates containing short sequence peptides dissolved in 5% DMSO and incubated at 37° C. The absorbance at 475 nm was measured using a BIO-TEK plate reader 30 min after reaction initiation. Each experiment was performed in triplicate on 3 separate occasions. The protocol is described in further detail in Piao et al., “Mushroom Tyrosinase Inhibition Activity of Some Chromones,” Chem. Pharm. Bull. […]: 309-311 (2002), and in Pomerants, J. Biol. Chem. 238:2351-2357 (1963).
Enzyme kinetics were calculated using the Michaelis-Menton equation by observing changes in reaction velocity accompanying substrate concentrations of 0.5, 1, 2, and 4 mM L-tyrosine. Once initial reaction velocities were obtained, Lineweaver-Burke plots were created to calculate Km, Vmax, and to determine the mode of enzymatic inhibition.
Tyrosinase inhibition activity was determined in vitro using L-tyrosine as substrate with a modified method from Piao L Z, Park H R, Park Y K, Lee S K, Park J H, Park M K. 2002. Mushroom Tyrosinase Inhibition Activity of Some Chromones. Chem. Pharm Bull 50(3): 309-311.
The concentration of enzyme, substrate and inhibitor was denoted as [E], [S] and […], respectively. 80 microliters of 0.067 M potassium phosphate buffer (pH 6.8), 40 microliters of L-tyrosine in 0.067 M potassium phosphate buffer (pH 6.8), 40 microliters of inhibitor in 5% DMSO solution, and 40 microliters of mushroom tyrosinase solution were added to a 96-well microplate, to make the final concentration of each reagent to be: 0.2 mg/ml [S], and 96 units/ml [E], with varying [I]. 5% DMSO solution instead of an inhibitor solution was added to a blank solution and adjusted to the total volume of 200 microliters as control. The assay mixture was incubated at 37° C. The amount of dopachrome produced in the reaction mixture was measured at 475 nm in a microplate reader at different time periods. The percentage of inhibition of tyrosinase activity was calculated as follows: Inhibition(%)=[(A−B)−C−D)]/(A−B)×100 • A: absorbance of blank solution after incubation • B: absorbance of blank solution before incubation • C: absorbance of sample solution after incubation • D: absorbance of sample solution before incubation

Molecule	melanin content [2]	reduction of cellular tyrosinase activity ([3]; 10 μM) [%]	IC50 (result in words) [5]	inhibitory activity on tyrosinase [5]	further results
Oc1ccc(O)cc1 [HQ, Hydroquinone, reference compound]	slightly reduced melanin content	28.8	–	–	IC50 [1]: ~700 µM; effect on melanocyte proliferation rates ([4]; up to 10 μM): did not show inhibitory effects
KFEFKFEF	–	–	no effect	only the former peptide had inhibiting activity	–
KFEKKFEK	–	–	–	had inhibiting activity	–
VLLK [control peptide; inner standard in stability testing]	–	–	no effect	only the YR peptide had inhibitory activity	–
YRSRKYSSWY	significantly reduced melanin content, to a greater extent than HQ	24.1	–	had inhibitory activity on tyrosinase	melanin synthesis in human melanocytes [2]: inhibited melanin synthesis; reduction of cellular tyrosinase activity ([3]; 1 μM): 14.5%; reduction of cellular tyrosinase activity ([3]; 100 μM): 37.4%; inhibition of tyrosinase activity, in words ([3]; FIG. 5, after incubation of melanocytes): comparable to that of HQ; effect on melanocyte proliferation rates ([4]; 1, 10 and 100 μM, listed as P4): did not observe any inhibitory effects; effect on melanocyte proliferation rates ([4]; 1, 10 and 100 μM, listed as YR peptide): did not inhibit cell proliferation; toxicity to melanocytes ([4]; up to 100 μM, treatment for 7 days): No toxicity was observed
